Values quoted from earlier work, collected in patent publication US20070293479A1, “OLANZAPINE PHARMACEUTICAL COMPOSITION” (priority 2006, published 2007).

Conditions: free base, at pH 6.8

In the case of `Cc1cc2c(s1)Nc1ccccc1N=C2N1CCN(C)CC1` [Olanzapine], the solubility is listed as “about 0.02 mg/ml”.
